Assay results taken from patent publication US11548899B2, “Fused 1,4-oxazepines and related analogs as BET bromodomain inhibitors” (THE REGENTS OF THE UNIVERSITY OF MICHIGAN, priority 2016, dated 2023).
“And” between values parts separate entries of the source, which are not always exact repeats. Equal values may be shown once.

How the values were obtained:
[1] = biological target: T1, recombinant BRD4 BD1 (Homo sapiens, UniProt O60885); experiment: Competitive fluorescence-polarization (FP) binding assay, BRD4 BD1; settings: FP competitive binding; protein 10 nM, probe 1.5 nM; read-out: IC50 (nM) BRD4 BD1
T1 construct: recombinant BRD4 BD1 and BRD4 BD2 proteins
Protocol: Fluorescence Polarization (FP) competitive binding studies were carried out using a FAM labeled fluorescent probe, see Cpd. […] Equilibrium dissociation constants (Kd) values of the fluorescent probe to BRD4 BD1 and BD2 proteins were determined from protein saturation experiments by monitoring the total fluorescence polarization of mixtures composed with the fluorescent probe at a fixed concentration and proteins with increasing concentrations up to full saturation. […] Plates were incubated at room temperature for 30 minutes with gentle shaking to assure equilibrium.
The IC50 and Ki values of compounds were determined in a competitive binding experiment. […] Mixtures of 10 μl of the tested compounds in assay buffer with 40% Ethylene Glycol and 190 μl of preincubated protein/probe complex solution in the assay buffer (100 mM potassium phosphate, pH 6.5, 0.01% Triton X-100) were added into assay plates which were incubated at room temperature for 30 minutes with gentle shaking. Final concentrations of proteins were 10 and 6 nM in assays for BRD4 BD1 and BD2, respectively. […] FP values were measured as described above. IC50 values were determined by nonlinear regression fitting of the competition curves.

[2] = biological target: T2, recombinant BRD4 BD2 (Homo sapiens, UniProt O60885); experiment: Competitive fluorescence-polarization (FP) binding assay, BRD4 BD2; settings: protein 6 nM, probe 1.5 nM
T2 construct: recombinant BRD4 BD1 and BRD4 BD2 proteins
Protocol: Fluorescence Polarization (FP) competitive binding studies were carried out using a FAM labeled fluorescent probe, see Cpd. […] Equilibrium dissociation constants (Kd) values of the fluorescent probe to BRD4 BD1 and BD2 proteins were determined from protein saturation experiments by monitoring the total fluorescence polarization of mixtures composed with the fluorescent probe at a fixed concentration and proteins with increasing concentrations up to full saturation. Serial dilutions of testing proteins were mixed with the fluorescent probe to a final volume of 200 μl in the assay buffer (100 mM phosphate buffer, pH=6.5, 0.01% Triton X-100 (Sigma, 282103) being added right before assays). Final fluorescent probe concentration was 1.5 nM for both proteins. Plates were incubated at room temperature for 30 minutes with gentle shaking to assure equilibrium. FP values in millipolarization units (mP) were measured using the Infinite M-1000 plate reader (Tecan U.S., Research Triangle Park, N.C.) in Microfluor 1 96-well, black, round-bottom plates (Thermo Scientific, Waltham, Mass.) at an excitation wavelength of 485 nm and an emission wavelength of 530 nm.
The IC50 and Ki values of compounds were determined in a competitive binding experiment. […] Mixtures of 10 μl of the tested compounds in assay buffer with 40% Ethylene Glycol and 190 μl of preincubated protein/probe complex solution in the assay buffer (100 mM potassium phosphate, pH 6.5, 0.01% Triton X-100) were added into assay plates which were incubated at room temperature for 30 minutes with gentle shaking. Final concentrations of proteins were 10 and 6 nM in assays for BRD4 BD1 and BD2, respectively. Final probe concentration is 1.5 nM in both assays. […] FP values were measured as described above. IC50 values were determined by nonlinear regression fitting of the competition curves.

Row | SMILES | IC50 [1] | IC50 [2]
1 | COC(=O)C[C@H]1c2nnc(C)n2-c2sc(C)c(Cc3ccccc3)c2CN1C(=O)OCc1ccccc1 [Cpd. No. 21, benzyl (S)-3-benzyl-6-(2-methoxy-2-oxoethyl)-2,9-dimethyl-4H-thieno[3,2-f][1,2,4]triazolo[4,3-a][1,4]diazepine-5(6H)-carboxylate] | 23800 nM | 17700 nM
2 | Cc1sc2c(c1Cc1ccccc1)CN(S(=O)(=O)CCc1ccccc1)[C@@H](C)c1nnc(C)n1-2 [Cpd. No. 26, (S)-3-benzyl-2,6,9-trimethyl-5-(phenethylsulfonyl)-5,6-dihydro-4H-thieno[3,2-f][1,2,4]triazolo[4,3-a][1,4]diazepine] | 9600 nM | 4460 nM
3 | Cc1nnc2n1-c1cccc(Br)c1COC2 [Cpd. No. 36, 7-bromo-1-methyl-4,6-dihydrobenzo[e][1,2,4]triazolo[3,4-c][1,4]oxazepine] | > 10000 nM | > 10000 nM
4 | Cc1nnc2n1-c1cccc(Nc3ccccc3)c1COC2 [Cpd. No. 37, 1-methyl-N-phenyl-4,6-dihydrobenzo[e][1,2,4]triazolo[3,4-c][1,4]oxazepin-7-amine] | 14500 nM | 1460 nM
5 | Cc1sc2c(c1Cn1cccc1)COCc1nnc(C)n1-2 [Cpd. No. 107, 3-((1H-pyrrol-1-yl)methyl)-2,9-dimethyl-4H,6H-thieno[2,3-e][1,2,4]triazolo[3,4-c][1,4]oxazepine] | 494 nM | 
6 | Cc1sc2c(c1COC(C)(C)C)COCc1nnc(C)n1-2 [Cpd. No. 108, 3-(tert-butoxymethyl)-2,9-dimethyl-4H,6H-thieno[2,3-e][1,2,4]triazolo[3,4-c][1,4]oxazepine] | 5000 nM | 
7 | Cc1nnc2n1-c1scc(Br)c1CO[C@H]2C [Cpd. No. 117, (S)-3-bromo-6,9-dimethyl-4,6-dihydrothieno[2,3-e][1,2,4]triazolo[3,4-c][1,4]oxazepine] | 118 nM | 

Other lines, results leading:

Row | IC50 [1] | IC50 [2] | SMILES
8 | 1070 nM and 1200 nM | 1210 nM and 1350 nM | Cc1sc2c(c1Cc1ccccc1)CN[C@@H](C)c1nnc(C)n1-2 [Cpd. No. 13, (S)-3-benzyl-2,6,9-trimethyl-5,6-dihydro-4H-thieno[3,2-f][1,2,4]triazolo[4,3-a][1,4]diazepine]
9 | 1080 nM | 622 nM | Cc1sc2c(c1Cc1ccccc1)CN[C@H](C)c1nnc(C)n1-2 [Cpd. No. 17, (R)-3-benzyl-2,6,9-trimethyl-5,6-dihydro-4H-thieno[3,2-f][1,2,4]triazolo[4,3-a][1,4]diazepine]
10 | 2430 nM | 3210 nM | CCC(=O)N1Cc2c(sc(C)c2Cc2ccccc2)-n2c(C)nnc2[C@@H]1C [Cpd. No. 19, (S)-1-(3-benzyl-2,6,9-trimethyl-4H-thieno[3,2-f][1,2,4]triazolo[4,3-a][1,4]diazepin-5(6H)-yl)propan-1-one]
11 | 6060 nM | 5920 nM | CCNC(=O)N1Cc2c(sc(C)c2Cc2ccccc2)-n2c(C)nnc2[C@@H]1C [Cpd. No. 22, (S)-3-benzyl-N-ethyl-2,6,9-trimethyl-4H-thieno[3,2-f][1,2,4]triazolo[4,3-a][1,4]diazepine-5(6H)-carboxamide]
12 | 2500 nM | 9010 nM | COC(=O)C[C@@H]1NCc2c(sc(C)c2Cc2ccccc2)-n2c(C)nnc21 [Cpd. No. 23, methyl(S)-2-(3-benzyl-2,9-dimethyl-5,6-dihydro-4H-thieno[3,2-f][1,2,4]triazolo[4,3-a][1,4]diazepin-6-yl)acetate]
13 | 942 nM | 1100 nM | CCOC(=O)CN1Cc2c(sc(C)c2Cc2ccccc2)-n2c(C)nnc2[C@@H]1C [Cpd. No. 25, ethyl (S)-2-(3-benzyl-2,6,9-trimethyl-4H-thieno[3,2-f][1,2,4]triazolo[4,3-a][1,4]diazepin-5(6H)-yl)acetate]
14 | 1470 nM | 5860 nM | Cc1sc2c(c1Cc1ccccc1)CN(C1CCC1)[C@@H](C)c1nnc(C)n1-2 [Cpd. No. 29, (S)-3-benzyl-5-cyclobutyl-2,6,9-trimethyl-5,6-dihydro-4H-thieno[3,2-f][1,2,4]triazolo[4,3-a][1,4]diazepine]
